{"source": "patent US6468969B1", "about": "“Inhibition of HIV-1 replication using d-amino acid peptides” (priority 1997, dated 2002)", "molecular_target": "proteinase K (Parengyodontium album, UniProt P06873)", "sequence (P06873 106-384)": "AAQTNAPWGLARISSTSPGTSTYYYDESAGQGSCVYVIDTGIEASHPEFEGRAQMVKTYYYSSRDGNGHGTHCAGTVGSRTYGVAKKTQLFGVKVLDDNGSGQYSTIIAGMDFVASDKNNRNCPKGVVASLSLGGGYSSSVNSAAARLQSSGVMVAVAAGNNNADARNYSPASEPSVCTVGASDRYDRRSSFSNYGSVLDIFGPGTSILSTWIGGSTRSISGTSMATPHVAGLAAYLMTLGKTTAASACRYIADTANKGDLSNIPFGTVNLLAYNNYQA", "test": "Proteinase K digestion of peptide-TAR RNA photocrosslink products", "settings": "very vigorous proteinase K digestion", "procedure": "For photochemical reactions, RNA duplex was prepared by hybridizing two strands ^24. Strand 1 of the duplex was 5′-end labeled with ^32P. Preformed RNA duplexes(0.02 μM) in the absence or presence of the peptide (0.1 μM) were irradiated ([…]) and analyzed by denaturing gels as described in Wang et al., Biochemistry 35, 6491-6499 (1996)."}
{"smiles": "CC[C@@H](C)[C@@H](NC(=O)CNC(=O)[C@@H](CC(C)C)NC(=O)[C@@H](C)NC(=O)[C@@H](CCCCN)NC(=O)[C@H](NC(=O)[C@H](NC(=O)[C@@H](Cc1ccccc1)NC(=O)[C@H](N)CS)[C@H](C)O)[C@H](C)O)C(=O)N[C@H](CO)C(=O)N[C@H](Cc1ccc(O)cc1)C(=O)NCC(=O)N[C@H](CCCNC(=N)N)C(=O)N[C@H](CCCCN)C(=O)N[C@H](CCCCN)C(=O)N[C@H](CCCNC(=N)N)C(=O)N[C@H](CCCNC(=N)N)C(=O)N[C@H](CCC(N)=O)C(=O)N[C@H](CCCNC(=N)N)C(=O)N[C@H](CCCNC(=N)N)C(=O)N[C@H](CCCNC(=N)N)C(=O)N1CCC[C@@H]1C(=O)N1CCC[C@@H]1C(=O)N[C@H](CCC(N)=O)C(=O)NCC(=O)N[C@H](CO)C(=O)N[C@H](CCC(N)=O)C(=O)N[C@@H](C(=O)N[C@H](Cc1c[nH]cn1)C(=O)N[C@H](CCC(N)=O)C(=O)N[C@@H](C(=O)N[C@H](CO)C(=O)N[C@H](CC(C)C)C(=O)N[C@H](CO)C(=O)N[C@H](CCCCN)C(=O)N[C@H](CCC(N)=O)C(=O)O)C(C)C)[C@H](C)O", "note": "[D-Tat (37-72) peptide, D-Cys-D-Phe-D-Thr-D-Thr-D-Lys-D-Ala-D-Leu-D-Gly-D-Ile-D-Ser-D-Tyr-D-Gly-D-Arg-D-Lys-D-Lys-D-Arg-D-Arg-D-Gln-D-Arg-D-Arg-D-Arg-D-Pro-D-Pro-D-Gln-D-Gly-D-Ser-D-Gln-D-Thr-D-His-D-Gln-D-Val-D-Ser-D-Leu-D-Ser-D-Lys-D-Gln]", "values": [{"measurement": "protease stability of peptide-RNA crosslink products", "result": "completely stable"}]}
